For 28 molecules, IC50 results are on record in patent US20210261512A1, “NOVEL COMPOUNDS” (INFLAZOME LIMITED, priority 2018, published 2021).

Bounds are passed on as bounds.

The test deals with NLRP3 (Homo sapiens, UniProt Q96P20). Nature of the test: THP-1 cells pyroptosis assay. In kind it is cell-based. Details: Seed THP-1 cells (25,000 cells/well) containing 1.0 μg/ml LPS; host or cells: THP-1. The conditions noted are these: LPS 1.0 μg/ml, nigericin 5 μM, resazurin readout, 10 μM top dose (Example 2: top dose of 30 μM). Here is the method: THP-1 cells (ATCC #TIB-202) were grown in RPMI containing L-glutamine (Gibco #11835) supplemented with imM sodium pyruvate (Sigma #S8636) and penicillin (100 units/ml)/streptomycin (0.1 mg/ml) (Sigma #P4333) in 10% Fetal Bovine Serum (FBS) (Sigma #F0804). The cells were routinely passaged and grown to confluency (˜10^6 cells/ml). On the day of the experiment, THP-1 cells were harvested and resuspended into RPMI medium (without FBS). The cells were then counted and viability (>90%) checked by Trypan blue (Sigma #T8154). Appropriate dilutions were made to give a concentration of 625,000 cells/ml. To this diluted cell solution was added LPS (Sigma #L4524) to give a 1 μg/ml Final Assay Concentration (FAC). 40 μl of the final preparation was aliquoted into each well of a 96-well plate. The plate thus prepared was used for compound screening.
Sequence of NLRP3 (Q96P20 whole entry): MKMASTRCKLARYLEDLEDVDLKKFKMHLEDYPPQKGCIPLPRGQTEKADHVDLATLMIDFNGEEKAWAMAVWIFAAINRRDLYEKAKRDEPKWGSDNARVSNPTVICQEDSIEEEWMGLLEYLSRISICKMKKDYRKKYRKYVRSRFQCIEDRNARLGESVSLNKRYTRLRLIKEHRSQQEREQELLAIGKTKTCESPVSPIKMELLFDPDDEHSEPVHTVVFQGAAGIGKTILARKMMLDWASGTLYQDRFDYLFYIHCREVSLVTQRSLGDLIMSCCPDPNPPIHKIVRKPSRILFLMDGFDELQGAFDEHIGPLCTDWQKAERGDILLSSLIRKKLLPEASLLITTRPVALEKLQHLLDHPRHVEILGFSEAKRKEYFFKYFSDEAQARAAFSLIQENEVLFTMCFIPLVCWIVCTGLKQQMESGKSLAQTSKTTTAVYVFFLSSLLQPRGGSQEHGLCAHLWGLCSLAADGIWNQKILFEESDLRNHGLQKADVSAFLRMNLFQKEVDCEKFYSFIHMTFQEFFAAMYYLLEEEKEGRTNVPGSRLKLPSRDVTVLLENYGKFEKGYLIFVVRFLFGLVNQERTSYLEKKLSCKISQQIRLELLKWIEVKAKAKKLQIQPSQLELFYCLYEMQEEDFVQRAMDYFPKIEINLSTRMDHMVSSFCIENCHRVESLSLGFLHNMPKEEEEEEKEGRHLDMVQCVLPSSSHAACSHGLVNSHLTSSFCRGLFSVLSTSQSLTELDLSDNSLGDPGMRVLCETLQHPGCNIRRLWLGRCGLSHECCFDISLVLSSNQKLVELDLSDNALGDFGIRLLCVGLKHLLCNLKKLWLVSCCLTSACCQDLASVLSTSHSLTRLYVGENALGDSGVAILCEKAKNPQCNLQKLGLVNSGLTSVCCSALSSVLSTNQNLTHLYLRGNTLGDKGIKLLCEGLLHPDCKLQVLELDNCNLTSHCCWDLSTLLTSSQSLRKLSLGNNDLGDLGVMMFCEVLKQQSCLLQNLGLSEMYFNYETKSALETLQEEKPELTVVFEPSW
The following method step-by-step assay was followed for compound screening. • 1. Seed THP-1 cells (25,000 cells/well) containing 1.0 μg/ml LPS in 40 μl of RPMI medium (without FBS) in 96-well, black walled, clear bottom cell culture plates coated with poly-D-lysine (VWR #734-0317) • 2. Add 5 μl compound (8 points four-fold dilution or 8 points half-log dilution, with 10 μM top dose, unless stated otherwise) or vehicle (DMSO 0.1% FAC) to the appropriate wells • 3. Incubate for 3 hrs at 37° C. and 5% CO2 • 4. Add 5 μl nigericin (Sigma #N7143) (FAC 5 μM) to all wells • 5. Incubate for 1 hr at 37° C. and 5% CO2 • 6. At the end of the incubation period, spin plates at 300×g for 3 mins and remove supernatant • 7. Then add 50 μl of resazurin (Sigma #R^7017) (FAC 100 μM resazurin in RPMI medium without FBS) and incubate plates for a further 1-2 hrs at 37° C. and 5% CO2 • 8. Plates were read in an Envision reader at Ex 560 nm and Em 590 nm • 9. IC50 data is fitted to a non-linear regression equation (log inhibitor vs response-variable slope 4-parameters)
Background: The colour change of resazurin is a common sign of viable cells or microbes.

For `CN1CCC[C@H](NS(=O)(=O)c2nnc(Nc3c4c(cc5c3CCC5)CCC4)[nH]2)C1` [Example 105, (S)-5-((1,2,3,5,6,7-hexahydro-s-indacen-4-yl)amino)-N-(1-methylpiperidin-3-yl)-4H-1,2,4-triazole-3-sulfonamide], the half-maximal inhibitory concentration (IC50) (usually the concentration that inhibits the measured activity by half) is at most 5 µM.
Then `C[C@@H](CN(C)C)NS(=O)(=O)c1nnc(Nc2c3c(cc4c2CCC4)CCC3)[nH]1` [Example 106, (S)—N-(1-(dimethylamino)propan-2-yl)-5-((1,2,3,5,6,7-hexahydro-s-indacen-4-yl)amino)-4H-1,2,4-triazole-3-sulfonamide], with at most 10 µM.
With `CC(=O)NCCN(C)S(=O)(=O)c1nnc(Nc2c3c(cc4c2CCC4)CCC3)[nH]1` [Example 107, N-(2-(5-((1,2,3,5,6,7-hexahydro-s-indacen-4-yl)amino)-N-methyl-4H-1,2,4-triazole-3-sulfonamido)ethyl)acetamide], the IC50 was at most 10 µM.
In turn, `COC(=O)CN(CCN)S(=O)(=O)c1nnc(Nc2c3c(cc4c2CCC4)CCC3)[nH]1` [Example 111, methyl 2-(N-(2-aminoethyl)-5-((1,2,3,5,6,7-hexahydro-s-indacen-4-yl)amino)-4H-1,2,4-triazole-3-sulfonamido)acetate] displayed an IC50 of at most 10 µM.
Then `O=S(=O)(NC1CCCNC1)c1nnc(Nc2c3c(cc4c2CCC4)CCC3)[nH]1` (stereo not shown) [Example 112, 5-((1,2,3,5,6,7-hexahydro-s-indacen-4-yl)amino)-N-(piperidin-3-yl)-4H-1,2,4-triazole-3-sulfonamide], with at most 5 µM; and `CN1CCN(S(=O)(=O)c2nnc(Nc3c4c(cc5c3CCC5)CCC4)[nH]2)CC1=O` [Example 113, 4-((5-((1,2,3,5,6,7-hexahydro-s-indacen-4-yl)amino)-4H-1,2,4-triazol-3-yl)sulfonyl)-1-methylpiperazin-2-one], with at most 5 µM.
The molecule `O=C1CCCN1CCNS(=O)(=O)c1nnc(Nc2c3c(cc4c2CCC4)CCC3)[nH]1` [Example 114, 5-((1,2,3,5,6,7-hexahydro-s-indacen-4-yl)amino)-N-(2-(2-oxopyrrolidin-1-yl)ethyl)-4H-1,2,4-triazole-3-sulfonamide] had an IC50 of at most 5 µM.
As to `CC(=O)NCCNS(=O)(=O)c1nnc(Nc2c3c(cc4c2CCC4)CCC3)[nH]1` [Example 115, N-(2-(5-((1,2,3,5,6,7-hexahydro-s-indacen-4-yl)amino)-4H-1,2,4-triazole-3-sulfonamido)ethyl)acetamide], the IC50 was at most 5 µM.
Under `CC(C)(O)CCNS(=O)(=O)c1nnc(Nc2c3c(cc4c2CCC4)CCC3)[nH]1` [Example 116, 5-((1,2,3,5,6,7-hexahydro-s-indacen-4-yl)amino)-N-(3-hydroxy-3-methylbutyl)-4H-1,2,4-triazole-3-sulfonamide] stands at most 5 µM.
`O=C1CCC(CNS(=O)(=O)c2nnc(Nc3c4c(cc5c3CCC5)CCC4)[nH]2)N1` (stereo not shown) [Example 121, 5-((1,2,3,5,6,7-hexahydro-s-indacen-4-yl)amino)-N-((5-oxopyrrolidin-2-yl)methyl)-4H-1,2,4-triazole-3-sulfonamide] showed an IC50 of at most 10 µM.
`O=S(=O)(c1nnc(Nc2c3c(cc4c2CCC4)CCC3)[nH]1)N1CCC(O)C1` (stereo not shown) [Example 123, 1-((5-((1,2,3,5,6,7-hexahydro-s-indacen-4-yl)amino)-4H-1,2,4-triazol-3-yl)sulfonyl)pyrrolidin-3-ol]: the IC50 is at most 5 µM.
Then `O=S(=O)(c1nnc(Nc2c3c(cc4c2CCC4)CCC3)[nH]1)N1CCC(N2CCOCC2)C1` (stereo not shown) [Example 127, N-(1,2,3,5,6,7-hexahydro-s-indacen-4-yl)-5-((3-morpholinopyrrolidin-1-yl)sulfonyl)-4H-1,2,4-triazol-3-amine], with at most 5 µM; and `O=S(=O)(NCCN1CCOCC1)c1nnc(Nc2c3c(cc4c2CCC4)CCC3)[nH]1` [Example 129, 5-((1,2,3,5,6,7-hexahydro-s-indacen-4-yl)amino)-N-(2-morpholinoethyl)-4H-1,2,4-triazole-3-sulfonamide], with at most 5 µM; and `CN1CCN(CCNS(=O)(=O)c2nnc(Nc3c4c(cc5c3CCC5)CCC4)[nH]2)CC1` [Example 131, 5-((1,2,3,5,6,7-hexahydro-s-indacen-4-yl)amino)-N-(2-(4-methylpiperazin-1-yl)ethyl)-4H-1,2,4-triazole-3-sulfonamide], with at most 5 µM.
Then `O=S(=O)(NCCc1ccccc1)c1nnc(Nc2c3c(cc4c2CCC4)CCC3)[nH]1` [Example 134, 5-((1,2,3,5,6,7-hexahydro-s-indacen-4-yl)amino)-N-phenethyl-4H-1,2,4-triazole-3-sulfonamide], with at most 5 µM.
Then `CN1CCN(C2CCN(S(=O)(=O)c3nnc(Nc4c5c(cc6c4CCC6)CCC5)[nH]3)CC2)CC1` [Example 135, N-(1,2,3,5,6,7-hexahydro-s-indacen-4-yl)-5-((4-(4-methylpiperazin-1-yl)piperidin-1-yl)sulfonyl)-4H-1,2,4-triazol-3-amine], with at most 5 µM; and `CNC(=O)C1CCN(S(=O)(=O)c2nnc(Nc3c4c(cc5c3CCC5)CCC4)[nH]2)C1` (stereo not shown) [Example 140, 1-((5-((1,2,3,5,6,7-hexahydro-s-indacen-4-yl)amino)-4H-1,2,4-triazol-3-yl)sulfonyl)-N-methylpyrrolidine-3-carboxamide], with at most 5 µM.
Consider `CN1CC2CCN(S(=O)(=O)c3nnc(Nc4c5c(cc6c4CCC6)CCC5)[nH]3)C2C1` (stereo not shown) [Example 142, N-(1,2,3,5,6,7-hexahydro-s-indacen-4-yl)-5-((5-methylhexahydropyrrolo[3,4-b]pyrrol-1 (2H)-yl)sulfonyl)-4H-1,2,4-triazol-3-amine], for which the IC50 is at most 5 µM.
With `COc1cc(-c2cc(F)cc(C(C)C)c2Cc2nnc(S(=O)(=O)c3ccccc3)[nH]2)ccn1` [Example 155, 4-(5-fluoro-3-isopropyl-2-((5-(phenylsulfonyl)-4H-1,2,4-triazol-3-yl)-methyl)phenyl)-2-methoxypyridine], the IC50 is at most 10 µM.
Under `O=S(=O)(c1nnc(Nc2c3c(cc4c2CCC4)CCC3)[nH]1)C1CCOCC1` [Example 157, N-(1,2,3,5,6,7-hexahydro-s-indacen-4-yl)-5-((tetrahydro-2H-pyran-4-yl)sulfonyl)-4H-1,2,4-triazol-3-amine] stands at most 10 µM; under `CN(C)CC1CCN(S(=O)(=O)c2nnc(Cc3c4c(cc5c3CCC5)CCC4)[nH]2)C1` (stereo not shown) [Example 158, 1-(1-((5-((1,2,3,5,6,7-hexahydro-s-indacen-4-yl)methyl)-4H-1,2,4-triazol-3-yl)sulfonyl)pyrrolidin-3-yl)-N,N-dimethylmethanamine], at most 5 µM; under `COc1cc(-c2ccc3c(c2Cc2nnc(S(=O)(=O)N4CCC(CN(C)C)C4)[nH]2)CCC3)ccn1` (stereo not shown) [Example 160, 1-(1-((5-((5-(2-methoxypyridin-4-yl)-2,3-dihydro-1H-inden-4-yl)-methyl)-4H-1,2,4-triazol-3-yl)sulfonyl)pyrrolidin-3-yl)-N,N-dimethylmethanamine], at most 5 µM.
Then `CC(C)c1cc(F)cc(C(C)C)c1Cc1nnc(S(=O)(=O)N2CCC(CN(C)C)C2)[nH]1` (stereo not shown) [Example 161, 1-(1-((5-(4-fluoro-2,6-diisopropylbenzyl)-4H-1,2,4-triazol-3-yl)-sulfonyl)pyrrolidin-3-yl)-N,N-dimethylmethanamine], with at most 5 µM.
Then `O=S(=O)(c1cccnn1)c1n[nH]c(Nc2c3c(cc4c2CCC4)CCC3)n1` [Example 167, N-(1,2,3,5,6,7-hexahydro-s-indacen-4-yl)-3-(pyridazin-3-ylsulfonyl)-1H-1,2,4-triazol-5-amine], with at most 5 µM; and `O=S(=O)(c1ccnnc1)c1n[nH]c(Nc2c3c(cc4c2CCC4)CCC3)n1` [Example 168, N-(1,2,3,5,6,7-hexahydro-s-indacen-4-yl)-3-(pyridazin-4-ylsulfonyl)-1H-1,2,4-triazol-5-amine], with at most 5 µM; and `O=S(=O)(c1cncnc1)c1n[nH]c(Nc2c3c(cc4c2CCC4)CCC3)n1` [Example 169, N-(1,2,3,5,6,7-hexahydro-s-indacen-4-yl)-3-(pyrimidin-5-ylsulfonyl)-1H-1,2,4-triazol-5-amine], with at most 10 µM.
In the case of `O=S(=O)(c1ccccn1)c1nnc(Nc2c3c(cc4c2CCC4)CCC3)[nH]1` [Example 170, N-(1,2,3,5,6,7-hexahydro-s-indacen-4-yl)-5-(pyridin-2-ylsulfonyl)-4H-1,2,4-triazol-5-amine], the IC50 was at most 1 µM.
Take `O=S(=O)(c1ccncc1)c1nnc(Nc2c3c(cc4c2CCC4)CCC3)[nH]1` [Example 171, N-(1,2,3,5,6,7-hexahydro-s-indacen-4-yl)-5-(pyridin-4-ylsulfonyl)-4H-1,2,4-triazol-3-amine]: the IC50 was at most 5 µM.
